Results: ChEMBL document CHEMBL1121688 (J Med Chem, 1981)

Assays:
Dopamine receptor = assay: Relative affinity for dopamine receptor by displacement of [3H]spiroperidol (2.2 nM) from (in vitro) dopamine binding sites in rat caudate nuclei
[1] = target: Muscarinic acetylcholine receptor; assay: Concentration required (in vitro) to displace 50% specific binding of [3H]clozapine to Muscarinic acetylcholine receptor in rat brain; type: tissue-based
[2] = Concentration required (in vitro) to displace 50% specific binding of [3H]clozapine to non-muscarinic sites in rat brain in presence of 1 uM atropine; type: tissue-based
[3] = Concentration required (in vitro) to displace 50% specific binding of [3H]clozapine to sites in rat brain

SMILES | IC50 (Dopamine receptor) [µM] | IC50 [1] [µM] | IC50 [2] [µM] | IC50 [3] [µM]
CN1CCN(C2=Nc3cc(Cl)ccc3N(C)c3ccccc32)CC1 | 32.4 | 0.012 | 0.088 | 
CN1CCN(C2=Cc3cc(Cl)ccc3Cc3ccccc32)CC1 | 0.342 | 0.67 | 0.013 | 
CN1CCN(C2=Nc3cc(Cl)ccc3Oc3ccccc32)CC1 [ISOLOXAPINE] | 2.48 | 0.049 | 0.038 | 
CC1CCN(C2=Cc3cc(Cl)ccc3Cc3ccccc32)CC1 | > 10 | > 10 | > 10 | 
CC1CCN(C2=Cc3ccccc3Cc3ccc(Cl)cc32)CC1 |  | > 10 | > 10 | 
CN1CCN(C2=Nc3ccccc3Nc3ccc(Cl)cc32)CC1 [ISOCLOZAPINE] | 0.758 |  |  | 0.017
CN1CCN(C2=Nc3cc(Cl)ccc3Nc3ccccc32)CC1 [CLOZAPINE] |  |  | 0.013 | 

Next, values leading:

IC50 (Dopamine receptor) [µM] | IC50 [1] [µM] | IC50 [2] [µM] | IC50 [3] [µM] | SMILES
0.808 | 0.61 | 0.0037 |  | CN1CCN(C2=Cc3ccccc3Cc3ccccc32)CC1
0.039 | 0.29 | 0.01 |  | CN1CCN(C2=Cc3ccccc3Cc3ccc(Cl)cc32)CC1
0.678 | 0.622 | 0.007 |  | CN1CCC(C2=Cc3cc(Cl)ccc3Cc3ccccc32)CC1
